Columns and labels:
Assay in all cases: Bliss excess, mean over the matrix (fraction); higher = more synergy
[1] = test system: OE19 (Esophageal Adenocarcinoma)
Method in brief: (§1)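 Cell lines grown in DMEM/F12 or RPMI with 10% FBS were plated in 1536-well plates and held 24 hours at 37°C, 5% CO2 before 72 hours of exposure to two-drug dose matrices, with DMSO typically at 0.2%. CellTiter-Glo 2.0 luminescence gave viability, which was converted to inhibition. Vehicle wells were set to 0 and blank wells to 1. Combination Emax is the second-highest inhibition in the matrix, and Bliss excess is the observed combination effect minus the expected EA + EB − EA·EB, where EA and EB are the single-agent effects.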

[2] = test system: SW13 (Other Solid Carcinomas)
Method in brief: as §1

[3] = test system: OVCAR-4 (Ovarian Carcinoma)
Method in brief: as §1

[4] = test system: HSC-4 (Oral Cavity Carcinoma)
Method in brief: as §1

[5] = test system: SCC-15 (Oral Cavity Carcinoma)
Method in brief: as §1

[6] = test system: SU8686 (Pancreatic Carcinoma)
Method in brief: as §1

[7] = test system: ACHN (Kidney Carcinoma)
Method in brief: as §1

[8] = test system: RF-48 (B-Cell Non-Hodgkin's Lymphoma)
Method in brief: as §1

[9] = test system: NB69 (Neuroblastoma)
Method in brief: as §1

[10] = test system: TE-1 (Esophageal Squamous Cell Carcinoma)
Method in brief: as §1

[11] = test system: UACC-62 (Melanoma)
Method in brief: as §1

[12] = test system: AMO-1 (Plasma Cell Myeloma)
Method in brief: as §1

[13] = test system: PANC-04-03 (Pancreatic Carcinoma)
Method in brief: as §1

[14] = test system: TK10 (Kidney Carcinoma)
Method in brief: as §1

[15] = test system: NCI-H358 (Lung Adenocarcinoma)
Method in brief: as §1

[16] = test system: C-4-I (Cervical Carcinoma)
Method in brief: as §1

[17] = test system: HGC-27 (Gastric Carcinoma)
Method in brief: as §1

[18] = test system: NEC8 (Other Solid Carcinomas)
Method in brief: as §1

[19] = test system: Ca9-22 (Head and Neck Carcinoma)
Method in brief: as §1

[20] = test system: NCI-H1915 (Non-Small Cell Lung Carcinoma)
Method in brief: as §1

| SMILES | Bliss excess [1] | Bliss excess [2] | Bliss excess [3] | Bliss excess [4] | Bliss excess [5] | Bliss excess [6] | Bliss excess [7] | Bliss excess [8] | Bliss excess [9] | Bliss excess [10] | Bliss excess [11] | Bliss excess [12] | Bliss excess [13] | Bliss excess [14] | Bliss excess [15] | Bliss excess [16] | Bliss excess [17] | Bliss excess [18] | Bliss excess [19] | Bliss excess [20] |
| --- | --- | --- | --- | --- | --- | --- | --- | --- | --- | --- | --- | --- | --- | --- | --- | --- | --- | --- | --- | --- |
| NC1(C(=O)N[C@@H](CCO)c2ccc(Cl)cc2)CCN(c2ncnc3[nH]ccc23)CC1 [Capivasertib] + CC(=O)c1c(C)c2cnc(Nc3ccc(N4CCNCC4)cn3)nc2n(C2CCCC2)c1=O [Palbociclib] (first compound max 10 µM, 7x7, partner max 10 µM) | -0.0854 | -0.0236 | -0.0517 | -0.0777 | -0.0456 | -0.0465 | 0.003 | -0.0186 | -0.009 | -0.0276 | -0.057 | 0.0364 | -0.0351 | -0.0106 | -0.0373 | -0.0334 | -0.0085 | -0.0104 | 0.0171 | -0.0247 |
| NC1(C(=O)N[C@@H](CCO)c2ccc(Cl)cc2)CCN(c2ncnc3[nH]ccc23)CC1 [Capivasertib] + CC(C)n1c(=O)n(C)c2cnc3cc(F)c(-c4ccc(OCCCN5CCCCC5)nc4)cc3c21 [AZD1390] (first compound max 10 µM, 7x7, partner max 0.3 µM) | -0.0026 | 0.0127 | -0.0488 | -0.0891 | -0.0796 | -0.0484 | -0.0389 | -0.0052 | -0.0787 | -0.0818 | -0.0888 | 0.0042 | -0.0997 | -0.0798 | -0.0088 | -0.027 | -0.053 | -0.0089 | -0.0368 | -0.0621 |
| NC1(C(=O)N[C@@H](CCO)c2ccc(Cl)cc2)CCN(c2ncnc3[nH]ccc23)CC1 [Capivasertib] + CCN(CCO)CCCOc1ccc2c(Nc3cc(CC(=O)Nc4cccc(F)c4)[nH]n3)ncnc2c1 [AZD2811] (first compound max 10 µM, 7x7, partner max 1 µM) | -0.0513 | -0.0397 | -0.0092 | -0.081 | 0.0105 | -0.0212 | -0.0384 | -0.0019 | -0.0339 | -0.0347 | -0.016 | 0.0783 | -0.0142 | -0.0434 | -0.0521 | -0.0492 | -0.0167 | -0.0094 | 0.0117 | -0.0294 |
| NC1(C(=O)N[C@@H](CCO)c2ccc(Cl)cc2)CCN(c2ncnc3[nH]ccc23)CC1 [Capivasertib] + COc1nnc2ccc(N3CCC(c4ccc(OCCN5CCN(C)C(=O)[C@H]5C)cc4)CC3)nn12 [AZD5153] (first compound max 10 µM, 7x7, partner max 1 µM) | 0.0561 | -0.0086 | -0.0387 | 0.0211 | 0.028 | -0.0359 | -0.0094 | -0.0275 | -0.0299 | -0.0169 | -0.0551 | -0.0336 | -0.0242 | -0.0154 | -0.0514 | 0.046 | 0.0097 | 0.0363 | -0.0073 | 0.0289 |
| NC1(C(=O)N[C@@H](CCO)c2ccc(Cl)cc2)CCN(c2ncnc3[nH]ccc23)CC1 [Capivasertib] + C[C@@H]1COCCN1C2=NC(=NC(=C2)C3(CC3)[S@](=N)(=O)C)C4=C5C=CNC5=NC=C4 [AZD6738] (first compound max 10 µM, 7x7, partner max 10 µM) | -0.0619 | -0.049 | -0.0267 | -0.0422 | -0.027 | -0.032 | -0.0303 | -0.0888 | -0.0728 | -0.0831 | 0.0231 | -0.021 | -0.0322 | -0.0604 | -0.0896 | 0.0234 | -0.0182 | 0.0288 | -0.0386 | -0.081 |
| NC1(C(=O)N[C@@H](CCO)c2ccc(Cl)cc2)CCN(c2ncnc3[nH]ccc23)CC1 [Capivasertib] + Cn1cnc2c(F)c(Nc3ccc(Br)cc3Cl)c(C(=O)NOCCO)cc21 [Selumetinib] (first compound max 10 µM, 7x7, partner max 10 µM) | 0.0786 | 0.102 | -0.0254 | -0.0133 | -0.0334 | 0.0012 | 0.0379 | -0.0343 | 0.0278 | 0.0059 | 0.0562 | 0.0678 | 0.0247 | 0.0043 | -0.0396 | 0.0609 | -0.0414 | 0.0013 | -0.0383 | 0.0366 |
| COc1cccc2c1C(=O)c1c(O)c3c(c(O)c1C2=O)C[C@@](O)(C(=O)CO)C[C@@H]3O[C@H]1C[C@H](N)[C@H](O)[C@H](C)O1 [Doxorubicin] + Cc1cc2ncnn2cc1Nc1ncc2c(n1)n(C1CCOCC1)c(=O)n2C [AZD7648] (first compound max 1 µM, 7x7, partner max 10 µM) | 0.0189 | 0.0466 | -0.0056 | 0.0047 | 0.0028 | -0.0262 | 0.068 | 0.021 | 0.0516 | -0.022 | 0.0306 | 0.0818 | -0.0394 | 0.0138 | 0.0186 | 0.1 | 0.0171 | 0.0952 | 0.0703 | 0.0154 |
| CS(=O)(=O)CCNCc1ccc(-c2ccc3ncnc(Nc4ccc(OCc5cccc(F)c5)c(Cl)c4)c3c2)o1 [Lapatinib] + C[C@@H](Oc1cc(-c2cnn(C3CCNCC3)c2)cnc1N)c1c(Cl)ccc(F)c1Cl [Crizotinib] (first compound max 10 µM, 7x7, partner max 10 µM) | -0.007 | -0.0291 | -0.0231 | -0.0097 | -0.0015 | -0.0299 | -0.0558 | -0.0441 | -0.0592 | 0.0266 | -0.0153 | -0.0458 | -0.0586 | -0.0655 | -0.0522 | 0.0399 | -0.0903 | -0.0234 | -0.0383 | -0.0169 |
| CC(=O)c1c(C)c2cnc(Nc3ccc(N4CCNCC4)cn3)nc2n(C2CCCC2)c1=O [Palbociclib] + CC1(C)CCC(CN2CCN(c3ccc(C(=O)NS(=O)(=O)c4ccc(NCC5CCOCC5)c([N+](=O)[O-])c4)c(Oc4cnc5[nH]ccc5c4)c3)CC2)=C(c2ccc(Cl)cc2)C1 [Venetoclax] (first compound max 10 µM, 7x7, partner max 1 µM) | -0.0449 | -0.0444 | -0.0523 | -0.0523 | -0.0589 | -0.0391 | 0.0329 | -0.112 | 0.0084 | -0.0385 | -0.0678 | -0.0284 | -0.0528 | -0.0312 | -0.0862 | -0.0464 | 0.046 | -0.0265 | -0.0044 | 0.0174 |
| CC(=O)c1c(C)c2cnc(Nc3ccc(N4CCNCC4)cn3)nc2n(C2CCCC2)c1=O [Palbociclib] + Cc1c2c(nn1C)CSCc1cc(n(C)n1)CSc1cc(c3ccccc3c1)OCCCc1c(C(=O)O)n(C)c3c-2c(Cl)ccc13 [AZD5991] (first compound max 10 µM, 7x7, partner max 1 µM) | 0.0014 | 0.0252 | -0.0337 | -0.0729 | -0.044 | -0.0405 | -0.0106 | -0.0722 | 0.0058 | -0.0182 | -0.0612 | -0.0375 | -0.0464 | -0.0228 | -0.0249 | -0.115 | -0.0219 | 0.0111 | -0.0032 | -0.0526 |
| CC(=O)c1c(C)c2cnc(Nc3ccc(N4CCNCC4)cn3)nc2n(C2CCCC2)c1=O [Palbociclib] + Cn1cnc2c(F)c(Nc3ccc(Br)cc3Cl)c(C(=O)NOCCO)cc21 [Selumetinib] (first compound max 10 µM, 7x7, partner max 10 µM) | 0.0203 | 0.044 | -0.0471 | -0.0488 | -0.0721 | -0.0971 | 0.0146 | -0.0489 | 0.0829 | 0.0048 | -0.0359 | 0.0844 | -0.0213 | 0.0072 | -0.0489 | -0.0119 | 0.0403 | -0.0233 | 0.0539 | -0.034 |
| COc1cccc(OCCCN)c1-c1cc(Nc2cnc(C#N)cn2)n[nH]1 [Prexasertib] + C=CCn1c(=O)c2cnc(Nc3ccc(N4CCN(C)CC4)cc3)nc2n1-c1cccc(C(C)(C)O)n1 [AZD1775] (first compound max 1 µM, partner max 1 µM) | 0.114 | 0.0659 | 0.0205 | -0.0123 | 0.0227 | 0.0024 | -0.0133 | 0.0178 | 0.0657 | 0.0112 | -0.0118 | 0.047 | 0.0208 | 0.0018 | -0.0027 | 0.0337 | 0.108 | 0.122 | 0.0833 | 0.0494 |
| COc1cccc(OCCCN)c1-c1cc(Nc2cnc(C#N)cn2)n[nH]1 [Prexasertib] + CCc1c2c(nc3ccc(O)cc13)-c1cc3c(c(=O)n1C2)COC(=O)[C@]3(O)CC [SN-38] (first compound max 1 µM, 7x7, partner max 0.3 µM) | 0.129 | 0.0459 | 0.0476 | -0.0372 | -0.0236 | 0.02 | -0.0755 | -0.0572 | -0.0556 | -0.0025 | -0.042 | -0.04 | -0.067 | -0.0257 | -0.0212 | 0.0026 | 0.0388 | 0.0129 | 0.0163 | 0.0086 |
| COc1cccc(OCCCN)c1-c1cc(Nc2cnc(C#N)cn2)n[nH]1 [Prexasertib] + CN(C)CCCOc1ccc(-c2ccc3ncc4c(c3c2)n(C2CCOCC2)c(=O)n4C)cn1 [AZD0156] (first compound max 1 µM, 7x7, partner max 1 µM) | 0.0198 | 0.0256 | 0.0086 | -0.0079 | -0.0333 | -0.0068 | -0.0318 | 0.0213 | 0.0064 | -0.0356 | 0.0155 | -0.0341 | -0.0328 | -0.0239 | -0.034 | -0.0273 | -0.0193 | -0.009 | -0.0123 | -0.0086 |
| COc1cccc(OCCCN)c1-c1cc(Nc2cnc(C#N)cn2)n[nH]1 [Prexasertib] + C[C@@H]1COCCN1C2=NC(=NC(=C2)C3(CC3)[S@](=N)(=O)C)C4=C5C=CNC5=NC=C4 [AZD6738] (first compound max 1 µM, 7x7, partner max 10 µM) | -0.0277 | 0.0627 | -0.025 | 0.0305 | -0.0316 | -0.0315 | -0.0503 | -0.0175 | -0.0228 | -0.0617 | -0.0174 | -0.0361 | 0.0017 | 0.0238 | -0.021 | -0.0449 | -0.057 | -0.009 | -0.0024 | -0.0396 |
